The values that follow come from US4333930A, “Orthoarylideneaminophenethylamines and pharmaceutical compositions” (priority 1980, dated 1982).

Where two headings read alike, the source gives them in different places.

Data set [1] in a line: Oral toxicity (mortality) in the mouse, Table 1. Format: in vivo. The settings on record: mouse, in vivo, po, Swiss mice, 14 days. On the procedure:
(§1) The mortality percentages caused by the products of the present invention administered orally to Swiss mice are shown in Table 1. The animals, free of specific pathological organism were housed in an air conditioned room from 24 to 48 hours before the start of the experiments. They were divided up into lots of 5 males and 5 females. With the animals unfed for 24 hours, the substances were administered intragastrically in a base of 6% gum arabic in a volume equal to 0.1 ml for 10 g of animal weight. The mortality was recorded at 14 days.
(§2) % of mortality as a function of the dose

The subject of another data set is Swiss mice. Description: Oral toxicity (mortality) in the mouse, Table 1. The format is in vivo. The following applies: 14 days, 20160 min. As for the experimental part: as §1, §2
For the next data set, the system named is phenylbenzoquinone (PBQ). Description: Analgesic activity using phenylbenzoquinone (PBQ) as noxious agent, Table 2. The format is in vivo, male Swiss mouse. On the procedure:
The analgesic activity was determined with the male Swiss mouse using phenylbenzoquinone (PBQ) (a variation of the method of Siegmund et al, Proc. Soc. Exp. Med., […], 95, 729-31) as the noxious agent. Twenty-eightminutes after having administered the test products in a suspension in a 6% gum base, the PBQ solution was injected. The mice were then observed ca. 5 mn. for the next five minutes.
% of analgesic activity as a function of
the dose expressed in mg/kg

Data set [2] relates to number of escapes the animal made in 5 minutes. Description: Escape test, Table 3. Format: in vivo, mouse. The following applies: 5 min, read-out: % of activity (variation of the number of escapes). The text has this: The products of the invention were always administered orally in 6% gum base.
The notation NS signifies that the difference between the results noted for the product and the results noted for the excipient alone is not significant at the threshold 0.05 according to the Student t Test.

Data set [3] deals with number of displacements of the animal. Description: Four plates test (anxiolytic activity), Table 5. The following applies: oral, mouse. The format is in vivo. The text has this: (§3) The psychotropic profile of the present invention products has been characterized with the animals in numerous tests some of whose results are shown hereinafter. The products of the invention were always administered orally in 6% gum base.
A certain number of products manifest an anxiolytic activity evidenced in the test with the four plates with the mouse (Table 5).
% of increase in the number of displacements of the
animal as a function of the dose expressed in mg/kg

The test system of data set [4] is ptosis induced by reserpine. Description: Antagonism of ptosis induced by reserpine, Table 6. The settings on record: read-out: % of inhibition of ptosis induced by reserpine. The format is in vivo.
Text: as §3
(§4) Certain tests made it possible to show antidepressive activities. These are tests of antagonism to the effects of reserpine, oxotremorine (according to Everett G. M. et al, Science, 1956, 124, 79 and Levy J. et al, Therapie 1965, 20, 265) and to despair (according to Porsolt P. D. et al, Eur. J. Pharmacol., 1978, 47, 379-91).
% of inhibition of ptosis induced by reserpine
as a function of the dose administered orally

Data set [5] deals with trembling induced by oxotremorine. Description: Antagonism of trembling induced by oxotremorine, Table 7. Format: in vivo. The settings on record: read-out: % of inhibition of trembling induced by oxotremorine.
Text: as §3, §4
% of inhibition of trembling induced by
oxotremorine as a function of the dose
administered expressed in mg/kg

In data set [6] the test system is stereotype induced by apomorphine. As to the kind of experiment: Antagonism of the stereotype induced by apomorphine, Table 4. Format: in vivo. The settings on record: for % of activity vis-a-vis the stereotype induced by apomorphine: oral; for antagonism vis-a-vis the stereotype with apomorphine: in words.
Text: as §3
% of activity vis-a-vis the stereotype
induced by apomorphine as a function of the
administered dose expressed in mg/kg

Setting [7] is: 50 mg/kg, male Swiss mouse, PBQ.
Setting [8] is: Mus musculus, read-out: % of analgesic activity, 100 mg/kg, male Swiss mouse, PBQ.
Where [9] appears, read: Mus musculus, 200 mg/kg, male Swiss mouse, PBQ, read-out: % of analgesic activity.
Where [10] appears, read: Mus musculus, read-out: % of analgesic activity, 200 mg/kg, male Swiss mouse, PBQ.

In general, mortality refers to the share of the test organisms that died. Low values mean a weak lethal effect, high ones a strong lethal effect. `CN(C)CCc1cc2c(cc1N=Cc1cccs1)OCO2` [COR 01 151]: the mortality at 336 h in data set [1] (750 mg/kg) is 60%. Besides, the “% of mortality” value turned out to be 0% in the data set with Swiss mice (150 mg/kg), 10% with Swiss mice (250 mg/kg) and 40% in the data set with Swiss mice (500 mg/kg). Further, the “% of analgesic activity” value in the data set on phenylbenzoquinone (PBQ) (setting [7]) is given as 41%. Moreover, the inhibition in vivo at 100 mg/kg in the data set on phenylbenzoquinone (PBQ) (setting [8]) amounted to 79%. Moreover, the change in vivo at 100 mg/kg in data set [2] (Mus musculus, po) is -41%.

Turning to `CN(C)CCc1cc2c(cc1N=Cc1cccs1)OCO2` [COR 01 163], the entries for the “% of mortality” value with Swiss mice (150 mg/kg), in the data set with Swiss mice (250 mg/kg) and with Swiss mice (500 mg/kg) were 25%, 70% and 100%, respectively. Also, the “% of analgesic activity” value in the data set on phenylbenzoquinone (PBQ) (setting [7]) is listed as 17.5%.

Turning to `CN(C)CCc1cc2c(cc1N=Cc1cccs1)OCO2` [COR 01 171], the “% of mortality” value came out at 20% in the data set on Swiss mice (150 mg/kg), 80% with Swiss mice (250 mg/kg) and 90% in the data set on Swiss mice (500 mg/kg). Further, in the data set with phenylbenzoquinone (PBQ) (setting [7]), the “% of analgesic activity” value came out at 51%.

Take `C(=Nc1cc2c(cc1CCN1CCCCC1)OCO2)c1cccnc1` [COR 01 174]: the mortality at 336 h in data set [1] (2000 mg/kg) was 50%. In addition, the “% of mortality” value came out at 0% with Swiss mice (500 mg/kg) and 10% with Swiss mice (1000 mg/kg). Moreover, the “% of analgesic activity” value in the data set with phenylbenzoquinone (PBQ) (100 mg/kg, male Swiss mouse, PBQ) stood at 48%. The inhibition in vivo at 200 mg/kg in the data set on phenylbenzoquinone (PBQ) (setting [9]) came to 18%.

Take `CN(C)CCc1cc2c(cc1N=Cc1cccs1)OCO2` [COR 01 179]: the “% of mortality” value in the data set with Swiss mice (250 mg/kg) came to 10%; in the data set with Swiss mice (500 mg/kg) it was 90%.

`C(=Nc1cc2c(cc1CCN1CCOCC1)OCO2)c1cccs1` [COR 01 180]: the mortality at 336 h in data set [1] (500 mg/kg) was found to be 0%; in data set [1] (1000 mg/kg), 70%. Further, the inhibition in vivo at 50 mg/kg in the data set with phenylbenzoquinone (PBQ) (Mus musculus, 50 mg/kg, male Swiss mouse, PBQ, read-out: % of analgesic activity) is 18%. The inhibition in vivo at 100 mg/kg in the data set with phenylbenzoquinone (PBQ) (Mus musculus, 100 mg/kg, male Swiss mouse, PBQ, read-out: % of analgesic activity) was 26%. For the same compound, the inhibition in vivo at 200 mg/kg in the data set with phenylbenzoquinone (PBQ) (setting [9]) came to 34%. Moreover, the change in vivo at 50 mg/kg in data set [2] (50 mg/kg, oral, mouse, 5 minutes) was -21%; in data set [5] (50 mg/kg, oral), -22%. The change in vivo at 100 mg/kg in data set [2] (100 mg/kg, oral, mouse, 5 minutes) is -37%; in data set [5] (100 mg/kg, oral) it was -44%. Also, the change in vivo at 200 mg/kg is -75% in data set [2] (200 mg/kg, oral, mouse, 5 minutes) and -44% in data set [5] (200 mg/kg, oral). For the same compound, the “% of increase in the number of displacements of the animal” value in data set [3] (25 mg/kg) is recorded as “+69%”; in data set [3] (50 mg/kg), “+88%”; in data set [3] (75 mg/kg), “+35%”. In data set [4] (2.5 mg/kg, oral), the change in vivo at 2.5 mg/kg is -18%. Moreover, the change in vivo at 5 mg/kg in data set [4] (5 mg/kg, oral) was -34%. Besides, in data set [4] (10 mg/kg, oral), the change in vivo at 10 mg/kg is -26%. Moreover, in data set [4] (25 mg/kg, oral), the change in vivo at 25 mg/kg was -20%.

For the compound `C(=Nc1cc2c(cc1CCN1CCCC1)OCO2)c1cccnc1` [COR 01 186], the figures for the mortality at 336 h in data set [1] (750 mg/kg) and in data set [1] (1500 mg/kg) were 0% and 50%, respectively. The “% of mortality” value in the data set on Swiss mice (1000 mg/kg) is recorded as 40%.

`CN(C)CCc1cc2c(cc1N=Cc1cccnc1)OCO2` [COR 01 201, 6-dimethylaminoethyl N-(pyridylidene-3)-1,3-benzodioxole-5-ylamine] registered a mortality at 336 h in data set [1] (2000 mg/kg) of 30%. Also, the “% of mortality” value with Swiss mice (1000 mg/kg) was determined as 10%.

Regarding `Cc1ccc(C=Nc2cc3c(cc2CCN(C)C)OCO3)cc1` [COR 01 206], the mortality at 336 h in data set [1] (1500 mg/kg) was determined as 0%; in data set [1] (2000 mg/kg), 50%. The change in vivo at 25 mg/kg in data set [2] (Mus musculus, po) was -18%. Besides, in data set [2] (Mus musculus, po), the change in vivo at 50 mg/kg is -28%. Besides, in data set [2] (Mus musculus, po), the change in vivo at 100 mg/kg was -63%. The “% of activity vis-a-vis the stereotype induced by apomorphine” value was -53% in data set [6] (50 mg/kg), -71% in data set [6] (100 mg/kg) and -22% in data set [6] (200 mg/kg). Further, the “antagonism vis-a-vis the stereotype with apomorphine” value (from here on “antagonism vis-a-vis the stereotype”) in data set [6] is “manifest an antagonism”.

Take `CN(C)CCc1cc2c(cc1N=Cc1ccccc1)OCO2` [COR 01 209]: the mortality at 336 h in data set [1] (1000 mg/kg) was 0%. In data set [1] (1500 mg/kg), this compound yielded a mortality at 336 h of 40%. In data set [1] (2000 mg/kg), this compound showed a mortality at 336 h of 60%. Further, in the data set on phenylbenzoquinone (PBQ) (setting [10]), the inhibition in vivo at 200 mg/kg stood at 17%. Besides, in data set [2] (Mus musculus, po), the change in vivo at 5 mg/kg was -28%, the change in vivo at 25 mg/kg was -38%, the change in vivo at 50 mg/kg is -32% and the change in vivo at 100 mg/kg was -37%. Also, in data set [2] (Mus musculus, po), the change in vivo at 200 mg/kg was -20%. The “% of activity vis-a-vis the stereotype induced by apomorphine” value in data set [6] (50 mg/kg) is recorded as -54%. Besides, the “% of activity vis-a-vis the stereotype induced by apomorphine” value in data set [6] (100 mg/kg) is given as -51%. Further, the “% of activity vis-a-vis the stereotype induced by apomorphine” value in data set [6] (200 mg/kg) is on record as -42%. The “antagonism vis-a-vis the stereotype” value in data set [6] was “manifest an antagonism”. The change in vivo at 200 mg/kg in data set [4] (po) was -45%. In addition, in data set [5] (po), the change in vivo at 50 mg/kg was -60%, the change in vivo at 75 mg/kg is -60%, the change in vivo at 100 mg/kg is -55% and the change in vivo at 150 mg/kg was -60%. In data set [5] (po), the change in vivo at 200 mg/kg is -30%.

Consider `COc1ccc(C=Nc2cc3c(cc2CCN(C)C)OCO3)cc1` [COR 01 210], for which the mortality at 336 h is 0% in data set [1] (750 mg/kg), 10% in data set [1] (1000 mg/kg) and 20% in data set [1] (2000 mg/kg). The inhibition in vivo at 100 mg/kg in the data set with phenylbenzoquinone (PBQ) (setting [8]) worked out at 27%. Also, the inhibition in vivo at 200 mg/kg with phenylbenzoquinone (PBQ) (setting [10]) came out at 33%. The change in vivo at 100 mg/kg in data set [2] (Mus musculus, po) was -20%; in data set [4] (po) it was -38%; in data set [5] (po) it was -50%. Further, the change in vivo at 150 mg/kg in data set [2] (Mus musculus, po) was -26%; in data set [5] (po), -30%. Besides, the change in vivo at 200 mg/kg is -72% in data set [2] (Mus musculus, po) and -50% in data set [5] (po). The “% of activity vis-a-vis the stereotype induced by apomorphine” value in data set [6] (75 mg/kg) and in data set [6] (150 mg/kg) was -33% each time. Also, the “antagonism vis-a-vis the stereotype” value in data set [6] is reported as “manifest an antagonism”. For the same compound, the figures for the change in vivo at 50 mg/kg in data set [4] (po) and in data set [5] (po) were -21% and -50%, respectively. In addition, the change in vivo at 75 mg/kg in data set [5] (po) was -40%.
